The record followed here is ChEMBL document CHEMBL1155158, “Early bactericidal activity of high-dose rifampin in patients with pulmonary tuberculosis evidenced by positive sputum smears” (Antimicrob Agents Chemother, 2007).

Broadly, the Tmax is the time from dosing to the highest level. The Cmax is the maximum level reached in the sampled fluid or tissue.

Data set [1] deals with Mycobacterium tuberculosis. As to the kind of experiment: Antimycobacterial activity against Mycobacterium tuberculosis infected patient assessed as sputum bacterial count at 20 mg/kg, po administered daily for 2 days. It counts as functional.
The subject of data set [2] is Mycobacterium tuberculosis. Nature of the data set: Antimycobacterial activity against Mycobacterium tuberculosis infected patient assessed as sputum bacterial count at 20 mg/kg, po administered daily for 5 days. The data set is classed as functional.
Data set [3] can be described thus: Tmax in Mycobacterium tuberculosis infected patient at 3 mg/kg. The data set is classed as ADME, organism-based. Also on record: dose 3 mg/kg. To be noted: human, in vivo.
The nature of data set [4]: Tmax in Mycobacterium tuberculosis infected patient at 6 mg/kg. Also noted: dose 6 mg/kg. The settings on record: human, in vivo. The data set is classed as ADME, organism-based.
Data set [5] is described as follows: Tmax in Mycobacterium tuberculosis infected patient at 12 mg/kg. The data set is classed as ADME, organism-based. Also noted: dose 12 mg/kg. To be noted: human, in vivo.
Data set [6] in a line: Tmax in Mycobacterium tuberculosis infected patient at 20 mg/kg, po administered daily for 5 days. Also noted: dose 20 mg/kg, route oral. It counts as ADME, organism-based. The settings on record: human, in vivo.
In data set [7] the test system is Homo sapiens. Nature of the data set: AUC (0 to infinity) in Mycobacterium tuberculosis infected patient at 3 mg/kg. The data set is classed as ADME, organism-based, Plasma. Also noted: time infinity, dose 3 mg/kg. To be noted: in vivo.
Data set [8] concerns Homo sapiens. Nature of the data set: AUC (0 to infinity) in Mycobacterium tuberculosis infected patient at 6 mg/kg. The settings on record: in vivo. Also noted: time infinity, dose 6 mg/kg. It counts as ADME, organism-based, Plasma.
Data set [9] deals with Mycobacterium tuberculosis. Nature of the data set: Antimycobacterial activity against Mycobacterium tuberculosis infected patient assessed as sputum bacterial count at 600 mg, po after 2 days. The data set is classed as functional.
Data set [10] in a line: clinical. The settings on record: human, in vivo, 3 mg/kg.
Description: Cmax in Mycobacterium tuberculosis infected patient at 3 mg/kg
A short description of data set [11]: clinical. The settings on record: human, in vivo, 6 mg/kg.
Description: Cmax in Mycobacterium tuberculosis infected patient at 6 mg/kg
A short description of data set [12]: clinical. To be noted: human, in vivo, 12 mg/kg.
Description: Cmax in Mycobacterium tuberculosis infected patient at 12 mg/kg
Data set [13] is described as follows: clinical. To be noted: human, in vivo, po, 20 mg/kg.
Description: Cmax in Mycobacterium tuberculosis infected patient at 20 mg/kg, po administered daily for 5 days

As for `CO[C@H]1/C=C/O[C@@]2(C)Oc3c(C)c(O)c4c(O)c(c(/C=N/N5CCN(C)CC5)c(O)c4c3C2=O)NC(=O)/C(C)=C\C=C\[C@H](C)[C@H](O)[C@@H](C)[C@@H](O)[C@@H](C)[C@H](OC(C)=O)[C@@H]1C` [RIFAMPIN], the log10CFU/ml is given as 0.44 in data set [1], 0.3 in data set [2] and 0.221 in data set [9]. Besides, the Tmax is 3.12 h in data set [3], 3.67 h in data set [4], 2.5 h in data set [5] and 3.27 h in data set [6]. Also, the AUC in [7] came out at 13.1 µg/mL; in data set [8] it was 24.5 µg/mL. The Cmax was determined as 2530 ng/mL in data set [10], 3190 ng/mL in data set [11] and 13000 ng/mL in [12]. In data set [13], the maximum concentration (Cmax) at 120 h was found to be 14000 ng/mL.
